Columns and labels:
morningglory = test: Test A pre-/postemergence greenhouse test; type: in vivo, Ipomoea spp.; settings: for Plant response rating, Morningglory: 0 to 100 scale where 0 is no effect and 100 is complete control; for Morningglory plant response rating: 0 to 100 scale
Outline: (§1)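 Each test compound, dissolved in a non-phytotoxic solvent mixture with surfactant, was sprayed directly onto seeded soil (loam/sand blend) and, at the same moment, onto seedlings carrying one to two leaves. Around ten greenhouse days later, plants were rated visually for injury relative to untreated controls.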

crabgrass = test: Test A pre-/postemergence greenhouse test; type: in vivo, Digitaria sanguinalis; settings: for Plant response rating, Crabgrass, Large: 0 to 100 scale where 0 is no effect and 100 is complete control; for Crabgrass, Large plant response rating: 0 to 100 scale
Outline: as §1

rice = test: Test C flooded paddy test; type: in vivo, Oryza sativa; settings: Flood
Outline: (§2)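 Under a constant 3 cm flood, test compounds went directly into the paddy water. Following 13 to 15 days of greenhouse growth, treated species and controls were compared by eye.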

giant foxtail = test: Test A pre-/postemergence greenhouse test; type: in vivo, Setaria faberi; settings: for Plant response rating, Foxtail, Giant: 0 to 100 scale where 0 is no effect and 100 is complete control; for Foxtail, Giant plant response rating: 0 to 100 scale
Outline: as §1

barnyardgrass [1] = test: Test A pre-/postemergence greenhouse test; type: in vivo, Echinochloa crus-galli; settings: for Plant response rating, Barnyardgrass: 0 to 100 scale where 0 is no effect and 100 is complete control; for Barnyardgrass plant response rating: 0 to 100 scale
Outline: as §1

wheat = test: Test A pre-/postemergence greenhouse test; type: in vivo, Triticum aestivum; settings: for Plant response rating, Wheat: 0 to 100 scale where 0 is no effect and 100 is complete control; for Wheat plant response rating: 0 to 100 scale
Outline: as §1

barnyardgrass [2] = test: Test C flooded paddy test; type: in vivo, Echinochloa crus-galli; settings: Flood
Outline: as §2

velvetleaf = test: Test A pre-/postemergence greenhouse test; type: in vivo, Abutilon theophrasti; settings: for Plant response rating, Velvetleaf: 0 to 100 scale where 0 is no effect and 100 is complete control; for Velvetleaf plant response rating: 0 to 100 scale
Outline: as §1

duck salad = test: Test C flooded paddy test; type: in vivo, Heteranthera limosa; settings: Flood
Outline: as §2

redroot pigweed = test: Test A pre-/postemergence greenhouse test; type: in vivo, Amaranthus retroflexus; settings: for Plant response rating, Pigweed: 0 to 100 scale where 0 is no effect and 100 is complete control; for Pigweed plant response rating: 0 to 100 scale
Outline: as §1

corn = test: Test A pre-/postemergence greenhouse test; type: in vivo, Zea mays; settings: for Plant response rating, Corn: 0 to 100 scale where 0 is no effect and 100 is complete control; for Corn plant response rating: 0 to 100 scale
Outline: as §1

umbrella sedge = test: Test C flooded paddy test; type: in vivo, Cyperus difformis; settings: Flood
Outline: as §2

[3] = Postemergence, 500 g ai/ha, 0 is no effect, 100 is complete control
[4] = Preemergence, 125 g ai/ha, 0 no effect, 100 complete control
[5] = 62 g ai/ha, scale 0 to 100 (0 no effect, 100 complete control)
[6] = 250 g ai/ha, scale 0 to 100, 0 no effect, 100 complete control, 13 to 15 days
[7] = Preemergence, 500 g ai/ha, 0 no effect, 100 complete control

Cn1nc(C(F)(F)F)c(CS(=O)(=O)c2ccc(Cl)c[n+]2[O-])c1OCC(F)F [Compound 93]
Plant response rating, Morningglory (morningglory; Postemergence, 125 g ai/ha): 30
Morningglory plant response rating (morningglory; [3]): 40
Morningglory plant response rating (morningglory; [4]): 0
Plant response rating, Morningglory (morningglory; Preemergence, 500 g ai/ha): 0
Plant response rating, Crabgrass, Large (crabgrass; Postemergence, 125 g ai/ha): 50
Crabgrass, Large plant response rating (crabgrass; [3]): 80
Crabgrass, Large plant response rating (crabgrass; [4]): 60
Plant response rating, Crabgrass, Large (crabgrass; Preemergence, 500 g ai/ha): 90
Plant response rating, Rice (rice; [5]): 0
Plant response rating, Rice (rice; [6]): 30
Plant response rating, Foxtail, Giant (giant foxtail; Postemergence, 125 g ai/ha): 60
Foxtail, Giant plant response rating (giant foxtail; [3]): 80
Foxtail, Giant plant response rating (giant foxtail; [4]): 60
Plant response rating, Foxtail, Giant (giant foxtail; Preemergence, 500 g ai/ha): 90
Plant response rating, Barnyardgrass (barnyardgrass [1]; Postemergence, 125 g ai/ha): 70
Barnyardgrass plant response rating (barnyardgrass [1]; [3]): 80
Barnyardgrass plant response rating (barnyardgrass [1]; [4]): 60
Plant response rating, Barnyardgrass (barnyardgrass [1]; Preemergence, 500 g ai/ha): 90
Plant response rating, Wheat (wheat; Postemergence, 125 g ai/ha): 20
Wheat plant response rating (wheat; [3]): 40
Wheat plant response rating (wheat; [4]): 30
Wheat plant response rating (wheat; [7]): 30
Plant response rating, Barnyardgrass (barnyardgrass [2]; [5]): 0
Plant response rating, Barnyardgrass (barnyardgrass [2]; [6]): 20
Plant response rating, Velvetleaf (velvetleaf; Postemergence, 125 g ai/ha): 0
Velvetleaf plant response rating (velvetleaf; [3]): 50
Velvetleaf plant response rating (velvetleaf; [4]): 0
Velvetleaf plant response rating (velvetleaf; [7]): 40
Plant response rating, Ducksalad (duck salad; [5]): 0
Plant response rating, Ducksalad (duck salad; [6]): 50
Plant response rating, Pigweed (redroot pigweed; Postemergence, 125 g ai/ha): 60
Pigweed plant response rating (redroot pigweed; [3]): 70
Pigweed plant response rating (redroot pigweed; [4]): 70
Plant response rating, Pigweed (redroot pigweed; Preemergence, 500 g ai/ha): 100
Plant response rating, Corn (corn; Postemergence, 125 g ai/ha): 30
Corn plant response rating (corn; [3]): 30
Corn plant response rating (corn; [4]): 0
Plant response rating, Corn (corn; Preemergence, 500 g ai/ha): 0
Plant response rating, Sedge, Umbrella (umbrella sedge; [5]): 0
Plant response rating, Sedge, Umbrella (umbrella sedge; [6]): 40

CC(Oc1c(CS(=O)(=O)c2ccc(Cl)c[n+]2[O-])c(C(F)(F)F)nn1C)C(F)(F)F (centres unmarked) [Compound 95]
Plant response rating, Morningglory (morningglory; Postemergence, 125 g ai/ha): 0
Morningglory plant response rating (morningglory; [3]): 20
Morningglory plant response rating (morningglory; [4]): 0
Plant response rating, Morningglory (morningglory; Preemergence, 500 g ai/ha): 20
Plant response rating, Crabgrass, Large (crabgrass; Postemergence, 125 g ai/ha): 20
Crabgrass, Large plant response rating (crabgrass; [3]): 80
Crabgrass, Large plant response rating (crabgrass; [4]): 20
Plant response rating, Crabgrass, Large (crabgrass; Preemergence, 500 g ai/ha): 80
Plant response rating, Rice (rice; [5]): 0
Plant response rating, Rice (rice; [6]): 20
Plant response rating, Foxtail, Giant (giant foxtail; Postemergence, 125 g ai/ha): 20
Foxtail, Giant plant response rating (giant foxtail; [3]): 80
Foxtail, Giant plant response rating (giant foxtail; [4]): 70
Plant response rating, Foxtail, Giant (giant foxtail; Preemergence, 500 g ai/ha): 90
Plant response rating, Barnyardgrass (barnyardgrass [1]; Postemergence, 125 g ai/ha): 50
Barnyardgrass plant response rating (barnyardgrass [1]; [3]): 70
Barnyardgrass plant response rating (barnyardgrass [1]; [4]): 10
Plant response rating, Barnyardgrass (barnyardgrass [1]; Preemergence, 500 g ai/ha): 90
Wheat plant response rating (wheat; [3]): 30
Wheat plant response rating (wheat; [4]): 0
Wheat plant response rating (wheat; [7]): 30
Plant response rating, Barnyardgrass (barnyardgrass [2]; [5]): 0
Plant response rating, Barnyardgrass (barnyardgrass [2]; [6]): 20
Plant response rating, Velvetleaf (velvetleaf; Postemergence, 125 g ai/ha): 40
Velvetleaf plant response rating (velvetleaf; [3]): 40
Velvetleaf plant response rating (velvetleaf; [4]): 0
Velvetleaf plant response rating (velvetleaf; [7]): 0
Plant response rating, Ducksalad (duck salad; [5]): 0
Plant response rating, Ducksalad (duck salad; [6]): 80
Plant response rating, Pigweed (redroot pigweed; Postemergence, 125 g ai/ha): 0
Pigweed plant response rating (redroot pigweed; [3]): 30
Pigweed plant response rating (redroot pigweed; [4]): 0
Plant response rating, Pigweed (redroot pigweed; Preemergence, 500 g ai/ha): 10
Corn plant response rating (corn; [3]): 0
Corn plant response rating (corn; [4]): 0
Plant response rating, Corn (corn; Preemergence, 500 g ai/ha): 0
Plant response rating, Sedge, Umbrella (umbrella sedge; [5]): 0
Plant response rating, Sedge, Umbrella (umbrella sedge; [6]): 35

Cn1nc(C(F)(F)F)c(CS(=O)(=O)c2ccc(Cl)c[n+]2[O-])c1OCC(F)(F)C(F)(F)F [Compound 97]
Plant response rating, Morningglory (morningglory; Postemergence, 125 g ai/ha): 0
Morningglory plant response rating (morningglory; [3]): 0
Morningglory plant response rating (morningglory; [4]): 0
Plant response rating, Morningglory (morningglory; Preemergence, 500 g ai/ha): 20
Plant response rating, Crabgrass, Large (crabgrass; Postemergence, 125 g ai/ha): 20
Crabgrass, Large plant response rating (crabgrass; [3]): 60
Crabgrass, Large plant response rating (crabgrass; [4]): 20
Plant response rating, Crabgrass, Large (crabgrass; Preemergence, 500 g ai/ha): 70
Plant response rating, Rice (rice; [5]): 0
Plant response rating, Rice (rice; [6]): 30
Plant response rating, Foxtail, Giant (giant foxtail; Postemergence, 125 g ai/ha): 30
Foxtail, Giant plant response rating (giant foxtail; [3]): 70
Foxtail, Giant plant response rating (giant foxtail; [4]): 70
Plant response rating, Foxtail, Giant (giant foxtail; Preemergence, 500 g ai/ha): 80
Plant response rating, Barnyardgrass (barnyardgrass [1]; Postemergence, 125 g ai/ha): 20
Barnyardgrass plant response rating (barnyardgrass [1]; [3]): 70
Barnyardgrass plant response rating (barnyardgrass [1]; [4]): 10
Plant response rating, Barnyardgrass (barnyardgrass [1]; Preemergence, 500 g ai/ha): 90
Plant response rating, Wheat (wheat; Postemergence, 125 g ai/ha): 0
Wheat plant response rating (wheat; [3]): 30
Wheat plant response rating (wheat; [4]): 0
Wheat plant response rating (wheat; [7]): 0
Plant response rating, Barnyardgrass (barnyardgrass [2]; [5]): 0
Plant response rating, Barnyardgrass (barnyardgrass [2]; [6]): 0
Plant response rating, Velvetleaf (velvetleaf; Postemergence, 125 g ai/ha): 0
Velvetleaf plant response rating (velvetleaf; [3]): 30
Velvetleaf plant response rating (velvetleaf; [4]): 0
Velvetleaf plant response rating (velvetleaf; [7]): 0
Plant response rating, Ducksalad (duck salad; [5]): 0
Plant response rating, Ducksalad (duck salad; [6]): 40
Plant response rating, Pigweed (redroot pigweed; Postemergence, 125 g ai/ha): 0
Pigweed plant response rating (redroot pigweed; [3]): 20
Pigweed plant response rating (redroot pigweed; [4]): 30
Plant response rating, Pigweed (redroot pigweed; Preemergence, 500 g ai/ha): 30
Plant response rating, Corn (corn; Postemergence, 125 g ai/ha): 0
Corn plant response rating (corn; [3]): 0
Corn plant response rating (corn; [4]): 0
Plant response rating, Corn (corn; Preemergence, 500 g ai/ha): 0
Plant response rating, Sedge, Umbrella (umbrella sedge; [5]): 0
Plant response rating, Sedge, Umbrella (umbrella sedge; [6]): 0

Cc1cc[n+]([O-])c(S(=O)(=O)Cc2c(C(F)(F)F)nn(C)c2OCC(F)(F)C(F)(F)F)c1 [Compound 98]
Plant response rating, Morningglory (morningglory; Postemergence, 125 g ai/ha): 10
Morningglory plant response rating (morningglory; [3]): 80
Morningglory plant response rating (morningglory; [4]): 0
Plant response rating, Morningglory (morningglory; Preemergence, 500 g ai/ha): 50
Plant response rating, Crabgrass, Large (crabgrass; Postemergence, 125 g ai/ha): 10
Crabgrass, Large plant response rating (crabgrass; [3]): 70
Crabgrass, Large plant response rating (crabgrass; [4]): 30
Plant response rating, Crabgrass, Large (crabgrass; Preemergence, 500 g ai/ha): 90
Plant response rating, Rice (rice; [5]): 0
Plant response rating, Rice (rice; [6]): 0
Plant response rating, Foxtail, Giant (giant foxtail; Postemergence, 125 g ai/ha): 20
Foxtail, Giant plant response rating (giant foxtail; [3]): 80
Foxtail, Giant plant response rating (giant foxtail; [4]): 50
Plant response rating, Foxtail, Giant (giant foxtail; Preemergence, 500 g ai/ha): 100
Plant response rating, Barnyardgrass (barnyardgrass [1]; Postemergence, 125 g ai/ha): 0
Barnyardgrass plant response rating (barnyardgrass [1]; [3]): 70
Barnyardgrass plant response rating (barnyardgrass [1]; [4]): 60
Plant response rating, Barnyardgrass (barnyardgrass [1]; Preemergence, 500 g ai/ha): 100
Plant response rating, Wheat (wheat; Postemergence, 125 g ai/ha): 0
Wheat plant response rating (wheat; [3]): 0
Wheat plant response rating (wheat; [4]): 0
Wheat plant response rating (wheat; [7]): 20
Plant response rating, Barnyardgrass (barnyardgrass [2]; [5]): 0
Plant response rating, Barnyardgrass (barnyardgrass [2]; [6]): 0
Plant response rating, Velvetleaf (velvetleaf; Postemergence, 125 g ai/ha): 0
Velvetleaf plant response rating (velvetleaf; [3]): 40
Velvetleaf plant response rating (velvetleaf; [4]): 0
Velvetleaf plant response rating (velvetleaf; [7]): 50
Plant response rating, Ducksalad (duck salad; [5]): 0
Plant response rating, Ducksalad (duck salad; [6]): 0
Plant response rating, Pigweed (redroot pigweed; Postemergence, 125 g ai/ha): 0
Pigweed plant response rating (redroot pigweed; [3]): 20
Pigweed plant response rating (redroot pigweed; [4]): 20
Plant response rating, Pigweed (redroot pigweed; Preemergence, 500 g ai/ha): 60
Plant response rating, Corn (corn; Postemergence, 125 g ai/ha): 30
Corn plant response rating (corn; [3]): 30
Corn plant response rating (corn; [4]): 0
Plant response rating, Corn (corn; Preemergence, 500 g ai/ha): 0
Plant response rating, Sedge, Umbrella (umbrella sedge; [5]): 0
Plant response rating, Sedge, Umbrella (umbrella sedge; [6]): 0
